Entries after “also recorded” stand apart in the source; their conditions may differ. Ends that are not written are not given here.
How the values were obtained:
Assay type in all cases: cell-based
[1] = tested on: MDA-MB-231 cells; test: Viability of MDA-MB-231 cells, docetaxel alone or combined with peptides; conditions: 50 μM docetaxel alone, 24 hours
Method: (§1) After culturing 3×10^3 MDA-MB-231 cells in a 96-well plate for 24 hours under conditions of 37° C. and 5% CO2, the cells were treated with 50 μM docetaxel alone or in combination with the peptides of Examples 15 to 28 at a concentration of 0.2, 1 or 8 μM. Then, the cells were cultured for 24 hours under conditions of 37° C. and 5% CO2, 10 μl of 3-(4,5-dimethylthiazol-2-yl)-2,5-diphenyltetrazolium bromide reagent was added to each well, followed by reaction for 1 hour. After the reaction was completed, the reagent was removed, 200 μl of dimethyl sulfoxide was added to each well, and the absorbance was measured to confirm cell viability.

[2] = tested on: Aspc-1 cells; test: Viability of Aspc-1 cells, gemcitabine alone or combined with peptides; conditions: 1 nM gemcitabine alone, 24 hours
Method: as §1, with “culturing 3×10^3 Aspc-1 cells in” for “culturing 3×10^3 MDA-MB-231 cells in”, “treated with 1 nM gemcitabine alone or” for “treated with 50 μM docetaxel alone or”, “5% CO2, and 10 μl” for “5% CO2, 10 μl”

[3] = tested on: H1975 cells; test: Viability of H1975 cells, osimertinib alone or combined with peptides; conditions: Homo sapiens, NCI-H1975, 1 nM osimertinib alone, 24 hours, read-out: viable cancer cells
Method: as §1, with “culturing 3×10^3 H1975 cells in” for “culturing 3×10^3 MDA-MB-231 cells in”, “treated with 1 nM osimertinib alone or” for “treated with 50 μM docetaxel alone or”, “of Examples 1 to 14” for “of Examples 15 to 28”, “1 to 14 at a” for “15 to 28 at a”, “5% CO2, and 10 μl” for “5% CO2, 10 μl”

[4] = tested on: MDA-MB-231 cells; test: Cell viability (MTT, photomicrographs) in MDA-MB-231 cells; conditions: 16 μM peptide, 24 hours
Method: (§2) After culturing 3×10^3 MDA-MB-231 cells in a 96-well plate for 24 hours under conditions of 37° C. and 5% C02, the cells were either untreated or treated with the peptides of Examples 1 to 28 at a concentration of 16 μM, respectively. Then, the cells were cultured for 24 hours under conditions of 37° C. and 5% CO2, and 10 μl of 3-(4,5-dimethylthiazol-2-yl)-2,5-diphenyltetrazolium bromide reagent was added to each well, followed by reaction for 1 hour. After the reaction was completed, the reagent was removed, 200 μl of dimethyl sulfoxide was added to each well, and the absorbance was measured to confirm cell viability.

[5] = tested on: MDA-MB-231 cells; test: ADP-ribose level by ELISA in MDA-MB-231 cells; conditions: 0.2-32 μM peptide, 24 hours
Method: (§3) The peptides of Examples 1 to 28 of the present disclosure are designed to inhibit the action of poly ADP-ribose degradation enzyme. In Experimental Example 1, it was confirmed through cell experiments whether poly ADP-ribose was inhibited from being degraded by each of the peptides and accumulated in cancer cells.
5×10^3 MDA-MB-231 cells were divided into a group not treated with the Example peptide and a group treated with 0.2, 1, 2, 4, 8, 16, and 32 μM of the peptide of Example 5 (SEQ ID NO: 5), and cultured for 24 hours under conditions of 37° C. and 5% CO2 in Leibovitz's L-15 medium supplemented with 10% FBS, 100 units/ml penicillin, and 100 μg/ml streptomycin. The medium of the cultured cells was removed, and the samples were treated with RIPA buffer and 1% SDS. The prepared supernatant was used for ELISA analysis to detect and analyze ADP-ribose.

[6] = tested on: Hep G2 cells; test: ADP-ribose level by ELISA in Hep G2 cells; conditions: 0.2-32 μM peptide, 24 hours
Method: as §3
(§4) 5×10^5 Hep G2 cells were divided into a group not treated with the peptide of Example and a group treated with 0.2, 1, 2, 4, 8, 16, and 32 μM of the peptide of Example 4 (SEQ ID NO: 4), and cultured for 24 hours under conditions of 37° C. and 5% CO2 in EMEM medium supplemented with 10% FBS, 100 units/ml penicillin, and 100 μg/ml streptomycin. The medium of the cultured cells was removed, and the samples were treated with RIPA buffer and 1% SDS. The prepared supernatant was used for ELISA analysis to detect and analyze ADP-ribose.

[7] = tested on: Hep G2 cells; test: Cell viability (MTT, photomicrographs) in Hep G2 cells; conditions: 16 μM peptide, 24 hours
Method: 2-4. Change in viability in Hep G2 cells according to treatment with ADP-ribose binding peptide After culturing 3×10^3 Hep G2 cells in a 96-well plate for 24 hours under conditions of 37° C. and 5% CO2, the cells were either untreated or treated with the peptides of Examples 1 to 28 at a concentration of 16 μM, respectively. Then, the cells were cultured for 24 hours under conditions of 37° C. and 5% CO2, and 10 μl of 3-(4,5-dimethylthiazol-2-yl)-2,5-diphenyltetrazolium bromide reagent was added to each well, followed by reaction for 1 hour. After the reaction was completed, the reagent was removed, 200 μl of dimethyl sulfoxide was added to each well, and the absorbance was measured to confirm cell viability.

[8] = tested on: CCD-18Co; test: Cytotoxicity in normal cells CCD-18Co; conditions: CCD-18Co human colon fibroblast, 25, 50 and 100 μM, 24, 48 or 72 hours; listed as SEQ ID NO: 7
Method: (§5) As normal cells for testing, CCD-18Co, which is a human colon fibroblast, and HDPC, which is a human dermal papilla cell, were used. Further, the peptide of SEQ ID NO: 7 was used as a representative peptide of Examples of the present disclosure.
(§6) First, 5×10^3 cells of each normal cell were inoculated into a 96-well plate and cultured in DMEM medium for 24 hours under conditions of 37° C. and 5% CO2. The respective wells were divided into a group untreated with the peptide and groups treated with the peptide of SEQ ID NO: 7 (25, 50, and 100 μM, respectively), and tested.

[9] = tested on: HDPC; test: Cytotoxicity in normal cells HDPC; conditions: HDPC human dermal papilla cell, 25, 50 and 100 μM, 24, 48 or 72 hours; listed as SEQ ID NO: 7
Method: as §5, §6

[10] = tested on: HCT116 cells; test: Cell viability (MTT, photomicrographs) in HCT116 cells; conditions: 16 μM peptide, 24 hours
Method: as §2, with “HCT116” for “MDA-MB-231”, “CO2,” for “C02,”

[11] = tested on: HCT116 cells; test: ADP-ribose level by ELISA in HCT116 cells; conditions: 0.2-32 μM peptide, 24 hours
Method: as §3
as §4, with “5×10^5 HCT116” for “5×10^5 Hep G2”, “Example 6” for “Example 4”, “NO: 6),” for “NO: 4),”, “in McCoy's 5A” for “in EMEM”

[12] = tested on: Caki-1 cells; test: ADP-ribose level by ELISA in Caki-1 cells; conditions: 0.2-32 μM peptide, 24 hours
Method: as §3
as §4, with “5×10^5 Caki-1” for “5×10^5 Hep G2”, “Example 7” for “Example 4”, “NO: 7),” for “NO: 4),”, “in McCoy's 5A” for “in EMEM”

[13] = tested on: Caki-1 cells; test: Cell viability (MTT, photomicrographs) in Caki-1 cells; conditions: 16 μM peptide, 24 hours
Method: as §2, with “Caki-1” for “MDA-MB-231”, “CO2,” for “C02,”

[14] = tested on: U-87MG cells; test: Viability of U-87MG cells, bevacizumab alone or combined with peptides; parameters: dose or concentration left out as unconfirmed; conditions: bevacizumab alone, 24 hours
Method: as §1, with “culturing 3×10^3 U-87MG cells in” for “culturing 3×10^3 MDA-MB-231 cells in”, “treated with 18 mM of bevacizumab alone or” for “treated with 50 μM docetaxel alone or”, “of Examples 1 to 14” for “of Examples 15 to 28”, “1 to 14 at a” for “15 to 28 at a”, “5% CO2, and 10 μl” for “5% CO2, 10 μl”

In the case of `CC(=O)O[C@@]12CO[C@@H]1C[C@H](O)[C@@]1(C)C(=O)[C@H](O)C3=C(C)[C@@H](OC(=O)[C@H](O)[C@@H](NC(=O)OC(C)(C)C)c4ccccc4)C[C@@](O)([C@@H](OC(=O)c4ccccc4)[C@H]21)C3(C)C` [docetaxel], the cancer cells survived [1] is reported as “about 52%”.
In the case of `Nc1ccn([C@@H]2O[C@H](CO)[C@@H](O)C2(F)F)c(=O)n1` [gemcitabine], the cancer cells survived [2] is reported as “about 50%”.
Work on `C=CC(=O)Nc1cc(Nc2nccc(-c3cn(C)c4ccccc34)n2)c(OC)cc1N(C)CCN(C)C` [osimertinib] yielded a viability at 0.001 µM [3] of ~49%.
“FCYLIYFNSMSQMNRQTRRRRRLRR (ADP-ribose binding peptide) [Example 5]” was tested, and the “cancer cell growth and survival” value [4] was “inhibited from growing and killed” and the “amount of increase in ADP-ribose (fold change) compared to the control group” value [5] was “significant increase in the amount of ADP-ribose in a concentration-dependent manner”.
For “FLYVADLENMVQYRRNEHGRRRKIKR (ADP-ribose binding peptide) [Example 11]”, the “amount of increase in ADP-ribose (fold change) compared to the control group” value [6] was “significant increase in the amount of ADP-ribose in a concentration-dependent manner” and the “cancer cell growth and survival” value [7] was “inhibited from growing and killed”.
With FSYKIDFAEMKQMNLTTGKQRLIKR [Example 7] the “cytotoxicity to normal cells versus untreated control” value [8] was “no significant difference; also recorded: no toxicity was shown” and the “cytotoxicity to normal cells versus untreated control” value [9] was “no significant difference; also recorded: no toxicity was shown”.
FSYVIDENTMGQINRQTQRQRRVRR [Example 6] was tested, and the “cancer cell growth and survival” value [10] was “inhibited from growing and killed” and the “amount of increase in ADP-ribose (fold change) compared to the control group” value [11] was “significant increase in the amount of ADP-ribose in a concentration-dependent manner”.
For “GRYDVHLGERMRYAVYWDELASEVRR (ADP-ribose binding peptide) [Example 13]”, the “cancer cell growth and survival” value [10] was “inhibited from growing and killed” and the “amount of increase in ADP-ribose (fold change) compared to the control group” value [11] was “significant increase in the amount of ADP-ribose in a concentration-dependent manner”.
For “RHYTVNLNTYTATDTKGHSLSVQR (ADP-ribose binding peptide) [Example 12]”, the “cancer cell growth and survival” value [4] was “inhibited from growing and killed” and the “amount of increase in ADP-ribose (fold change) compared to the control group” value [5] was “significant increase in the amount of ADP-ribose in a concentration-dependent manner”.
In the case of “RVYTIDENSMQQINEDTGTARAIQR (RVYTIDFNSMQQINEDTGTARAIQR; ADP-ribose binding peptide) [Example 4]”, the “amount of increase in ADP-ribose (fold change) compared to the control group” value [6] is reported as “significant increase in the amount of ADP-ribose in a concentration-dependent manner” and the “cancer cell growth and survival” value [7] is reported as “inhibited from growing and killed”.
For “TAYEASVCDYLEQQVARGN (ADP-ribose binding peptide) [Example 14]”, the “amount of increase in ADP-ribose (fold change) compared to the control group” value [12] was “significant increase in the amount of ADP-ribose in a concentration-dependent manner” and the “cancer cell growth and survival” value [13] was “inhibited from growing and killed”.
bevacizumab was tested, and the viable cancer cells [14] was “about 49%”.

From patent publication US20230416316A1, “ADP-RIBOSE BINDING PEPTIDES WITH ANTI-CANCER ACTIVITY AND USE THEREOF” (PearlsInMires Co., Ltd., priority 2021, published 2023)
